Key:
Type in all cases: cell-based
LOX IMVI = experiment: NCI-60 screen; conditions: Homo sapiens, Melanoma
From the text: (§1) on the full NCI-60 panel comprising cancer cell lines derived from nine human cancer cell types (leukemia, non-small-cell lung, colon, central nervous system, melanoma, ovarian, renal, prostate, and breast).[50]

NCI-H522 = experiment: NCI-60 screen; conditions: Homo sapiens, Non-Small-Cell Lung Cancer
From the text: as §1

OVCAR-3 = experiment: NCI-60 screen; conditions: Homo sapiens, Ovarian Cancer
From the text: as §1

KM12 = experiment: NCI-60 screen; conditions: Homo sapiens, Colon Cancer
From the text: as §1

A498 = experiment: NCI-60 screen; conditions: Homo sapiens, Renal Cancer
Method: (§2) All the synthesized compounds 51–76 were tested at a 10^–5 M concentration for their antitumor activity on the full NCI-60 panel comprising cancer cell lines derived from nine human cancer cell types (leukemia, non-small-cell lung, colon, central nervous system, melanoma, ovarian, renal, prostate, and breast).[50]

NCI-H460 = experiment: NCI-60 screen; conditions: Homo sapiens, Non-Small-Cell Lung Cancer
Method: as §2

SR = experiment: NCI-60 screen; conditions: Homo sapiens, Leukemia
Method: as §2

MDA-MB-435 = experiment: NCI-60 screen; conditions: Homo sapiens, Melanoma
Method: as §2

CCRF-CEM = experiment: NCI-60 screen; conditions: Homo sapiens, Leukemia
Method: as §2

UACC-62 = experiment: NCI-60 screen; conditions: Homo sapiens, Melanoma
Method: as §2

ACHN = experiment: NCI-60 screen; conditions: Homo sapiens, Renal Cancer
Method: as §2

TK-10 = experiment: NCI-60 screen; conditions: Homo sapiens, Renal Cancer
Method: as §2

NCI-H226 = experiment: NCI-60 screen; conditions: Homo sapiens, Non-Small-Cell Lung Cancer
Method: as §2

RPMI-8226 = experiment: NCI-60 screen; conditions: Homo sapiens, Leukemia
Method: as §2

SF-295 = experiment: NCI-60 screen; conditions: Homo sapiens, CNS Cancer
Method: as §2

SW-620 = experiment: NCI-60 screen; conditions: Homo sapiens, Colon Cancer
Method: as §2

CAKI-1 = experiment: NCI-60 screen; conditions: Homo sapiens, Renal Cancer
Method: as §2

HT29 = experiment: NCI-60 screen; conditions: Homo sapiens, HT-29; Colon Cancer
Method: as §2

SNB-19 = experiment: NCI-60 screen; conditions: Homo sapiens, CNS Cancer
Method: as §2

K-562 = experiment: NCI-60 screen; conditions: Homo sapiens, K562; Leukemia
Method: as §2

COLO 205 = experiment: NCI-60 screen; conditions: Homo sapiens, Colon Cancer
Method: as §2

SK-OV-3 = experiment: NCI-60 screen; conditions: Homo sapiens, Ovarian Cancer
Method: as §2

PC-3 = experiment: NCI-60 screen; conditions: Homo sapiens, Prostate Cancer
Method: as §2

HCT-15 = experiment: NCI-60 screen; conditions: Homo sapiens, Colon Cancer
Method: as §2

HL-60(TB) = experiment: NCI-60 screen; conditions: Homo sapiens, Leukemia
Method: as §2

DU-145 = experiment: NCI-60 screen; conditions: Homo sapiens, Prostate Cancer
Method: as §2

IGROV1 = experiment: NCI-60 screen; conditions: Homo sapiens, IGROV-1; Ovarian Cancer
Method: as §2

NCI/ADR-RES = experiment: NCI-60 screen; conditions: Homo sapiens, Ovarian Cancer
Method: as §2

MCF7 = experiment: NCI-60 screen; conditions: Homo sapiens, Breast Cancer
Method: as §2

HCT-116 = experiment: NCI-60 screen; conditions: Homo sapiens, Colon Cancer
Method: as §2

SK-MEL-5 = experiment: NCI-60 screen; conditions: Homo sapiens, Melanoma
Method: as §2

M14 = experiment: NCI-60 screen; conditions: Homo sapiens, Melanoma
Method: as §2

SF-268 = experiment: NCI-60 screen; conditions: Homo sapiens, CNS Cancer
Method: as §2

MOLT-4 = experiment: NCI-60 screen; conditions: Homo sapiens, Leukemia
Method: as §2

MDA-MB-231/ATCC = experiment: NCI-60 screen; conditions: Homo sapiens, Breast Cancer
Method: as §2

VL51 ibrutinib-resistant = experiment: MTT cell proliferation, lymphoma; conditions: Homo sapiens, 72 h, of untreated cells, read-out: Proliferating cells (%)
Method in brief: (§3)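 Lymphoma lines in RPMI-1640 with 10% FBS seeded at 1 × 10^5 cells/mL and treated with 1 μM, or in triplicate with serial dilutions over 40–10 000 nM, for 72 h at 37 °C, 5% CO2. Viability by MTT (4 h), SDS lysis, absorbance at 570 nm with medium-only blanks.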

[1] = system: VL51 idelalisib-resistant; experiment: MTT cell proliferation, lymphoma; conditions: Homo sapiens, 72 h, of untreated cells, read-out: Proliferating cells (%)
Method in brief: as §3

SMILES	GI50 (LOX IMVI) [µM]	GI50 (NCI-H522) [µM]	GI50 (OVCAR-3) [µM]	GI50 (KM12) [µM]	GI50 (A498) [µM]	GI50 (NCI-H460) [µM]	GI50 (SR) [µM]	GI50 (MDA-MB-435) [µM]	GI50 (CCRF-CEM) [µM]	GI50 (UACC-62) [µM]	GI50 (ACHN) [µM]	GI50 (TK-10) [µM]	GI50 (NCI-H226) [µM]	GI50 (RPMI-8226) [µM]	GI50 (SF-295) [µM]	GI50 (SW-620) [µM]	GI50 (CAKI-1) [µM]	GI50 (HT29) [µM]	GI50 (SNB-19) [µM]	GI50 (K-562) [µM]	other results
CCOC(=O)c1cc2c(n1Cc1cc(OC)c(OC)c(OC)c1)-c1oncc1CCC2 [Compound 67, Ethyl 9-(3,4,5-Trimethoxybenzyl)-4,5,6,9-tetrahydropyrrolo[2′,3′:3,4]cyclohepta[1,2-d][1,2]oxazole-8-carboxylate]	0.41	0.01	0.03	0.05	0.11	0.23	0.04	0.02	0.3	0.05	0.29	64.9	1.21	0.38	0.44	0.14	0.07	0.07	0.56	0.13	GI50 (COLO 205): 0.04 µM; GI50 (SK-OV-3): 0.13 µM; GI50 (PC-3): 0.17 µM; GI50 (HCT-15): 0.16 µM; GI50 (HL-60(TB)): 0.19 µM; GI50 (DU-145): 0.28 µM; GI50 (IGROV1): 0.06 µM; GI50 (NCI/ADR-RES): 0.06 µM; GI50 (MCF7): 0.04 µM; GI50 (HCT-116): 0.19 µM; GI50 (SK-MEL-5): 0.17 µM; GI50 (M14): 0.15 µM; GI50 (SF-268): 0.52 µM; GI50 (MOLT-4): 0.39 µM; GI50 (MDA-MB-231/ATCC): 0.48 µM; activity at 1 µM (VL51 ibrutinib-resistant): 40.4%; activity at 1 µM [1]: 36.6%
CCOC(=O)c1c(Cl)c2c(n1Cc1ccccc1)-c1oncc1CCC2 [Compound 70, Ethyl 7-Chloro-9-benzyl-4,5,6,9-tetrahydropyrrolo[2′,3′:3,4]cyclohepta[1,2-d][1,2]oxazole-8-carboxylate]	5.26	1.29	3.13	3.7	4.38	3.62	1.8	1.4	2.21	4.01	5.89	> 100	> 100	3.27	> 100	3.81	3.51	2.95	> 100	3.68	GI50 (COLO 205): 3.53 µM; GI50 (SK-OV-3): > 100 µM; GI50 (PC-3): 3.16 µM; GI50 (HCT-15): 3.39 µM; GI50 (HL-60(TB)): 3.32 µM; GI50 (DU-145): > 100 µM; GI50 (IGROV1): 4.39 µM; GI50 (NCI/ADR-RES): 2.83 µM; GI50 (MCF7): 3.21 µM; GI50 (HCT-116): 4.02 µM; GI50 (SK-MEL-5): 3.53 µM; GI50 (M14): 3.78 µM; GI50 (SF-268): > 100 µM; GI50 (MOLT-4): 3.58 µM; GI50 (MDA-MB-231/ATCC): 3.51 µM; activity at 1 µM (VL51 ibrutinib-resistant): 104%; activity at 1 µM [1]: 111%
CCOC(=O)c1c(Cl)c2c(n1Cc1cc(OC)cc(OC)c1)-c1oncc1CCC2 [Compound 75, Ethyl 7-Chloro-9-(3,5-dimethoxybenzyl)-4,5,6,9-tetrahydropyrrolo[2′,3′:3,4]cyclohepta[1,2-d][1,2]oxazole-8-carboxylate]	0.88	0.03	0.19	0.32	0.17	0.35	0.07	0.03	0.25	0.11	0.94	10.3	9.71	0.39	0.06	0.32	0.28	0.27	0.52	0.29	GI50 (COLO 205): 0.17 µM; GI50 (SK-OV-3): 0.24 µM; GI50 (PC-3): 0.29 µM; GI50 (HCT-15): 0.37 µM; GI50 (HL-60(TB)): 0.31 µM; GI50 (DU-145): 0.35 µM; GI50 (IGROV1): 0.34 µM; GI50 (NCI/ADR-RES): 0.2 µM; GI50 (MCF7): 0.1 µM; GI50 (HCT-116): 0.43 µM; GI50 (SK-MEL-5): 0.49 µM; GI50 (M14): 0.26 µM; GI50 (SF-268): 1.91 µM; GI50 (MOLT-4): 0.58 µM; GI50 (MDA-MB-231/ATCC): 0.84 µM; activity at 1 µM (VL51 ibrutinib-resistant): 40.8%; activity at 1 µM [1]: 40.2%

— publication PMC7901646, “Pyrrolo[2′,3′:3,4]cyclohepta[1,2-d][1,2]oxazoles, a New Class of Antimitotic Agents Active against Multiple Malignant Cell Types” (Journal of Medicinal Chemistry, 2020)
